Drawing on PubChem BioAssay AID2060513 (Molecular Pharmacology Branch, DTP, NCI, 2025), this text covers viability, T/C and IC50 for 12 compounds.

The subject of the experiment is 299254-011-R-J1-PDC complex spheroids viability. Briefly: Anticancer human tumor 299254-011-R-J1-PDC patient-derived melanoma cell line growth inhibition [GQUAD]. The conditions noted are these: for viability, T/C: stronger effect = lower value; for IC50: curve of compound. From the text: DNA G-quadruplex Stabilizer Agents in Combinations in Complex Spheroids
A high-throughput screen of multi-cell type tumor spheroids was designed to identify active combinations of DNA G-quadruplex stabilizer agents and targeted small molecules. Complex spheroids include a stromal component modeled by human endothelial cells (HUVEC) and fibroblasts modeled by human mesenchymal stem cells (MSCs). The concentration ranges selected for each drug and investigational agent were based upon clinically achievable concentrations if the clinical Cmax of the agent was known.
Compounds. The drugs and investigational agents: pidnarulex (CX-5461; NSC782164), APTO-253 (NSC789042), BRACO-19 (NSC847499), peposertib (NSC802822), ceralasertib (NSC780249), elimusertib (NSC800525), camonsertib (NSC841442), AZD-1390 (NSC803789), olaparib (NSC753686), talazoparib (NSC767125), ART-558 (NSC835418), sotorasib (NSC818433), MRTX-1133 (NSC836407), SN-38 (NSC673596), topotecan (NSC609699), etoposide (NSC141540), doxorubicin (NSC123127), gemcitabine (NSC613327), 5-fluorouracil (NSC19893), paclitaxel (NSC125973), vemurafenib (NSC761431), panobinostat (NSC761190), R-306465 (JNJ-16241199; NSC773264), adavosertib (NSC754352), TP-3654 (NSC805149), carboplatin (NSC241240), KSQ-4279 (NSC840948), and staurosporine (NSC755774) were obtained from the National Cancer Institute (NCI) Developmental Therapeutics Program Chemical Repository (34). The FDA-approved anticancer drug set is available from the NCI Developmental Therapeutics Program. […] The stock solutions were prepared in dimethyl sulfoxide (DMSO, Sigma-Aldrich, St. Louis, MO, cat. D2650) at 800-fold the tested concentration and stored at -70 degrees C prior to their use. All drugs and investigational agents were tested over a range starting from a high concentration at or near the clinical Cmax and decreasing in half-log increments. If the clinical Cmax for an agent had not been determined, the highest concentration tested was 10 microM.
2.3 Cell Culture. All cells were maintained in an incubator at 37 degrees C and 5% CO2 with 95% humidity. The PDC lines were cultured according to standard operating procedures established by the NCI PDMR. All PDCs were thawed and cultured in Matrigel-coated flasks prepared with a working solution of 1X Ham's F-12 nutrient mix, without supplementation (Invitrogen, cat. 11765054), 100 U/mL penicillin-streptomycin (Invitrogen, cat. 15140122), and 2.5% Matrigel (Corning Inc., cat. 354248) for the first three passages. The 857933-349-R-J2-PDC line was cultured in 6C/Colon 1B media, which includes advanced DMEM/F-12 (Thermo Fisher Scientific, cat. 12634028), 10 mM HEPES (Thermo Fisher Scientific, cat. 15630080), 1X GlutaMAX supplement (Thermo Fisher Scientific, cat. 35050061), 0.1 mg/mL primocin (InvivoGen, cat. ant-pm-2), 10% defined fetal bovine serum, heat inactivated (HyClone Laboratories Inc., cat. SH30070.03HI), 50% L-WRN conditioned media (ATCC, cat. CRL-3276), 1.25 mM N-Acetyl-L-cysteine (Sigma-Aldrich, cat. A9165), 10 mM nicotinamide (Sigma-Aldrich, cat. N0636), 1X B-27 supplement (Thermo Fisher Scientific, cat. 17504044), 1X N-2 supplement (Thermo Fisher Scientific, cat. 17502048), 10 microM Y-27632 dihydrochloride (Tocris Bioscience, cat. 1254), and 50 ng/mL human EGF recombinant protein (Thermo Fisher Scientific, cat. PHG0311). The 485176-168-R4-J1-PDC line was cultured in Panc media, which includes all 6C/Colon 1B media components plus 100 ng/mL human FGF-10 (Thermo Fisher Scientific, cat. 100-26), 500 nM SB-431542 (Selleckchem, cat. S1067), and gastrin (Tocris, cat. 3006).
[…]

Where “and” joins values, the source holds several entries; their conditions need not be identical. Identical values can stand only once. Some results are limits rather than exact numbers.
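Also: spheroids exposed to the agents for seven days before readout.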
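For viability, T/C in this document: percent viability relative to DMSO vehicle control wells = 100%.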

In general, viability, T/C refers to the result in the treated group divided by that in the control group, in per cent. By IC50 is commonly meant the concentration at which inhibition is half-maximal. `C#Cc1c(F)ccc2cc(O)cc(-c3ncc4c(N5CC6CCC(C5)N6)nc(OCC56CCCN5CC(F)C6)nc4c3F)c12` (centres undefined): the half-inhibitory concentration (IC50) was greater than 10 µM. The viability, T/C (compound 0.0316 µM) was 117% and 84.2% and 84%. The viability, T/C (compound 0.1 µM) was 109% and 86.1% and 98.1%. In addition, the viability, T/C (compound 0.316 µM) was 90.8% and 85.1% and 95.8%. In addition, under “compound 1 µM”, the viability, T/C was 118% and 83.9% and 81%. In addition, the viability, T/C (compound 3.16 µM) is 86.5% and 93.7% and 84.6%. In addition, the viability, T/C (compound 10 µM) was 82.7% and 72.7% and 67.4%.

Turning to `C=CC(=O)N1CCN(c2nc(=O)n(-c3c(C)ccnc3C(C)C)c3nc(-c4c(O)cccc4F)c(F)cc23)C(C)C1` (centres undefined), the IC50 was greater than 10 µM. The viability, T/C (compound 0.0316 µM) was 79% and 95.8% and 88.2%. For the same compound, where the note is “compound 0.1 µM”, the viability, T/C is 57.3% and 82.7% and 63.5%. For the same compound, the viability, T/C (compound 0.316 µM) was 81% and 65.1% and 59%. Besides, the viability, T/C (compound 1 µM) is 59.5% and 59.8% and 59%. The viability, T/C (compound 3.16 µM) was 60.7% and 61% and 69.7%. The viability, T/C (compound 10 µM) is 68.5% and 69.6% and 66.1%.

`C=CCn1c(=O)c2cnc(Nc3ccc(N4CCN(C)CC4)cc3)nc2n1-c1cccc(C(C)(C)O)n1`: the IC50 is 1.58 µM and 1.57 µM and 1.38 µM. The viability, T/C (compound 0.0316 µM) was 114% and 117% and 102%. The viability, T/C (compound 0.1 µM) is 98.4% and 92.5% and 100%. Also, the viability, T/C (compound 0.316 µM) is 87.5% and 73% and 83.4%. For the same compound, the viability, T/C (compound 1 µM) is 60% and 62% and 52.8%. Also, the viability, T/C (compound 3.16 µM) is 32.2% and 34% and 37.9%. Also, the viability, T/C (compound 10 µM) is 36.5% and 32.4% and 20.3%.

For `CC(=O)O[C@H]1C(=O)[C@@]2(C)[C@H]([C@H](OC(=O)c3ccccc3)[C@]3(O)C[C@H](OC(=O)[C@H](O)[C@@H](NC(=O)c4ccccc4)c4ccccc4)C(C)=C1C3(C)C)[C@]1(OC(C)=O)CO[C@@H]1C[C@@H]2O`, the IC50 is 0.483 µM and 0.423 µM and 0.306 µM. Further, the viability, T/C (compound 0.0316 µM) is 102% and 92% and 92.4%. The viability, T/C (compound 0.1 µM) was 86.3% and 73.8% and 59%. Also, the viability, T/C (compound 0.316 µM) is 60.6% and 55.7% and 63.9%. Also, the viability, T/C (compound 1 µM) was 32% and 37.8% and 26.7%. The viability, T/C (compound 3.16 µM) is 18.9% and 18.2% and 24.1%. Besides, for the setting “compound 10 µM”, the viability, T/C is 12% and 17.6% and 19.5%.

In the case of `CC(C)(O)C1CCC(Nc2ccc3ncc(-c4cccc(C(F)(F)F)c4)n3n2)CC1` (centres undefined), the 50% inhibitory concentration (IC50) is greater than 10 µM. The viability, T/C (compound 0.0316 µM) was 108% and 89.2% and 122%. For the setting “compound 0.1 µM”, the viability, T/C is 113% and 90% and 91.5%. Besides, the viability, T/C (compound 0.316 µM) was 91.8% and 99.5% and 99.2%. For the same compound, the viability, T/C (compound 1 µM) was 98% and 96.9% and 84.3%. The viability, T/C (compound 3.16 µM) is 95.5% and 102% and 70.9%. Also, the viability, T/C (compound 10 µM) is 119% and 110% and 103%.

`CCCS(=O)(=O)Nc1ccc(F)c(C(=O)c2c[nH]c3ncc(-c4ccc(Cl)cc4)cc23)c1F`: the IC50 is 7.69 µM and 9.11 µM and 9.32 µM. Moreover, the viability, T/C (compound 0.0316 µM) is 130% and 120% and 109%. Further, the viability, T/C (compound 0.1 µM) was 101% and 98.5% and 102%. Further, the viability, T/C (compound 0.316 µM) was 92.2% and 107% and 95.9%. Further, the viability, T/C (compound 1 µM) is 107% and 104% and 112%. In addition, for the setting “compound 3.16 µM”, the viability, T/C was 80.6% and 104% and 103%. In addition, the viability, T/C (compound 10 µM) is 39.9% and 45.2% and 46.6%.

For the compound `COc1cc(C2c3cc4c(cc3C(OC3OC5COC(C)OC5C(O)C3O)C3COC(=O)C23)OCO4)cc(OC)c1O` (centres undefined), the IC50 was greater than 10 µM. For the setting “compound 0.0316 µM”, the viability, T/C is 102% and 90.8% and 122%. Besides, the viability, T/C (compound 0.1 µM) is 91.4% and 97.2% and 87.9%. In addition, the viability, T/C (compound 0.316 µM) is 85.3% and 106% (2×). In addition, the viability, T/C (compound 1 µM) was 97.1% and 91.9% and 92.2%. Also, the viability, T/C (compound 3.16 µM) is 75.5% and 101% and 99%. Further, for the setting “compound 10 µM”, the viability, T/C was 94.6% and 84.8% and 92.6%.

As to `COc1cccc2c1C(=O)c1c(O)c3c(c(O)c1C2=O)CC(O)(C(=O)CO)CC3OC1CC(N)C(O)C(C)O1` (centres undefined), the IC50 was 3.89 µM and 5.82 µM and 4.94 µM. Also, where the note is “compound 0.0316 µM”, the viability, T/C was 107% and 92.6% and 98%. Besides, where the note is “compound 0.1 µM”, the viability, T/C was 99.6% and 107% and 89.3%. Moreover, the viability, T/C (compound 0.316 µM) was 88.1% and 81.5% and 113%. The viability, T/C (compound 1 µM) was 75.9% and 86.5% and 81.4%. Moreover, the viability, T/C (compound 3.16 µM) is 60.2% and 77% and 70.5%. The viability, T/C (compound 10 µM) was 21.2% and 28% and 20.3%.

With `COc1ncnc(C2CC2)c1-c1ncc2cnn(Cc3ccc(-c4nc(C(F)(F)F)cn4C(C)C)cc3)c2n1`, the IC50 is greater than 10 µM. In addition, the viability, T/C (compound 0.0316 µM) was 105% and 110% and 90.2%. Besides, under “compound 0.1 µM”, the viability, T/C was 115% and 110% and 86.3%. Also, the viability, T/C (compound 0.316 µM) was 95.2% and 96.1% and 84.1%. Besides, the viability, T/C (compound 1 µM) was 102% (2×) and 85%. Moreover, under “compound 3.16 µM”, the viability, T/C is 107% and 93.2% and 89.6%. The viability, T/C (compound 10 µM) was 82.6% and 87.6% and 91.8%.

For `Nc1ccn(C2OC(CO)C(O)C2(F)F)c(=O)n1` (centres undefined), the IC50 was greater than 10 µM. In addition, the viability, T/C (compound 0.0316 µM) was 95.8% and 98.2% and 86.5%. Besides, the viability, T/C (compound 0.1 µM) is 83.6% and 88.4% and 76%. The viability, T/C (compound 0.316 µM) was 80.3% and 72.2% and 61.7%. Further, for the setting “compound 1 µM”, the viability, T/C was 41.2% and 60.1% and 52.5%. The viability, T/C (compound 3.16 µM) was 58.2% and 50.2% and 50.8%. The viability, T/C (compound 10 µM) was 53.6% and 73% and 51.9%.

`O=C(NO)c1cnc(N2CCN(S(=O)(=O)c3ccc4ccccc4c3)CC2)nc1`: the IC50 was 0.465 µM and 0.475 µM and 0.21 µM. Further, the viability, T/C (compound 0.0316 µM) was 99.8% and 95.4% and 87.7%. In addition, the viability, T/C (compound 0.1 µM) was 103% and 87.4% and 81.9%. Further, the viability, T/C (compound 0.316 µM) is 73.4% and 75% and 32.2%. The viability, T/C (compound 1 µM) is 3.62% and 4.16% and 0.67%. The viability, T/C (compound 3.16 µM) is 0.32% and 0.22%. For the same compound, the viability, T/C (compound 10 µM) is 0.34% and 0.21%.

Take `O=c1[nH]cc(F)c(=O)[nH]1`: the IC50 was greater than 10 µM. Besides, where the note is “compound 0.0316 µM”, the viability, T/C was 117% and 81.7% and 100%. For the same compound, under “compound 0.1 µM”, the viability, T/C was 110% and 105% and 96.5%. The viability, T/C (compound 0.316 µM) is 114% and 113% and 103%. The viability, T/C (compound 1 µM) was 103% and 86.2% and 122%. The viability, T/C (compound 3.16 µM) was 114% and 113% and 83.2%. Further, the viability, T/C (compound 10 µM) was 103% and 85.3% and 87.8%.
